How the values were obtained:
CCRF-CEM [1] = assay: Growth inhibition of human CCRF-CEM cells incubated for 48 hrs by sulforhodamine B spectrophotometric assay; type: functional
SF-268 = assay: Growth inhibition of human SF-268 cells incubated for 48 hrs by sulforhodamine B spectrophotometric assay; type: functional
SF-295 = assay: Growth inhibition of human SF-295 cells incubated for 48 hrs by sulforhodamine B spectrophotometric assay; type: functional
SK-MEL-2 = assay: Growth inhibition of human SK-MEL-2 cells incubated for 48 hrs by sulforhodamine B spectrophotometric assay; type: functional
UACC-257 = assay: Growth inhibition of human UACC-257 cells incubated for 48 hrs by sulforhodamine B spectrophotometric assay; type: functional
OVCAR-3 [2] = assay: Growth inhibition of human OVCAR-3 cells incubated for 48 hrs by sulforhodamine B spectrophotometric assay; type: functional
OVCAR-8 = assay: Growth inhibition of human OVCAR-8 cells incubated for 48 hrs by sulforhodamine B spectrophotometric assay; type: functional
T47D = assay: Growth inhibition of human T47D cells incubated for 48 hrs by sulforhodamine B spectrophotometric assay; type: functional
HCC 2998 = assay: Growth inhibition against human HCC 2998 cells assessed as total growth inhibitory concentration incubated for 48 hrs by sulforhodamine B spectrophotometric assay; type: functional
HCT-116 = assay: Growth inhibition against human HCT-116 cells assessed as total growth inhibitory concentration incubated for 48 hrs by sulforhodamine B spectrophotometric assay; type: functional
SF-539 = assay: Growth inhibition against human SF-539 cells assessed as total growth inhibitory concentration incubated for 48 hrs by sulforhodamine B spectrophotometric assay; type: functional
SNB-19 = assay: Growth inhibition against human SNB-19 cells assessed as total growth inhibitory concentration incubated for 48 hrs by sulforhodamine B spectrophotometric assay; type: functional
U-251 = assay: Growth inhibition against human U-251 cells assessed as total growth inhibitory concentration incubated for 48 hrs by sulforhodamine B spectrophotometric assay; type: functional
OVCAR-3 [3] = assay: Growth inhibition against human OVCAR-3 cells assessed as total growth inhibitory concentration incubated for 48 hrs by sulforhodamine B spectrophotometric assay; type: functional
CCRF-CEM [4] = assay: Growth inhibition against human CCRF-CEM cells assessed as lethal concentration incubated for 48 hrs by sulforhodamine B spectrophotometric assay; type: functional; settings: read-out: LC50 (the source's name)
A549 = assay: Growth inhibition against human A549 cells assessed as lethal concentration incubated for 48 hrs by sulforhodamine B spectrophotometric assay; type: functional; settings: read-out: LC50 (the source's name)
EKVX = assay: Growth inhibition against human EKVX cells assessed as lethal concentration incubated for 48 hrs by sulforhodamine B spectrophotometric assay; type: functional; settings: read-out: LC50 (the source's name)
SNB-75 = assay: Growth inhibition against human SNB-75 cells assessed as lethal concentration incubated for 48 hrs by sulforhodamine B spectrophotometric assay; type: functional; settings: read-out: LC50 (the source's name)
M14 = assay: Growth inhibition against human M14 cells assessed as lethal concentration incubated for 48 hrs by sulforhodamine B spectrophotometric assay; type: functional; settings: read-out: LC50 (the source's name)
OVCAR-3 [5] = assay: Growth inhibition against human OVCAR-3 cells assessed as lethal concentration incubated for 48 hrs by sulforhodamine B spectrophotometric assay; type: functional; settings: read-out: LC50 (the source's name)
786-0 = assay: Growth inhibition against human 786-0 cells assessed as lethal concentration incubated for 48 hrs by sulforhodamine B spectrophotometric assay; type: functional; settings: read-out: LC50 (the source's name)
UO-31 = assay: Growth inhibition against human UO-31 cells assessed as lethal concentration incubated for 48 hrs by sulforhodamine B spectrophotometric assay; type: functional; settings: read-out: LC50 (the source's name)
MCF7 = assay: Cytotoxicity against human MCF7 cells assessed as cell growth inhibition incubated for 72 hrs by MTT assay; type: functional, cell-based; settings: MCF7, 72 h
CCRF-CEM [6] = assay: Induction of cell cycle arrest in human CCRF-CEM cells assessed as accumulation of cells at G2/M phase at 20.7 uM incubated for 24 hrs by propidium iodide staining based flow cytometry analysis (reference value: 20.24 +/- 0.25%); type: functional
[7] = GSH reactivity of compound at pH 7.4 phosphate buffer assessed as GSH-adduct formation at 1 mM incubated for 1 hr by spectrophotometric analysis; type: physicochemical; settings: pH 7.4, 1 h, 1000 µM
MDA-MB-231 [8] = assay: Induction of apoptosis in human MDA-MB-231 cells assessed as increase in caspase-8 level at 10 uM incubated for 24 hrs by flow cytometry analysis; type: functional
MDA-MB-231 [9] = assay: Induction of apoptosis in human MDA-MB-231 cells assessed as increase in caspase 3/7 activity at 5 uM incubated for 24 hrs by flow cytometry analysis; type: functional

O=C1C2=C(C(=O)c3c(O)cccc31)C(c1ccco1)c1sc(=O)[nH]c1S2 (configuration not stated) showed a GI50 (CCRF-CEM [1]) of 3.29 µM, a GI50 (SF-268) of 3.48 µM and a GI50 (SF-295) of 1.98 µM. The GI50 (SK-MEL-2) was 3.51 µM, the GI50 (UACC-257) was 1.57 µM and the GI50 (OVCAR-3 [2]) was 2.86 µM. The GI50 (OVCAR-8) was 2.46 µM, the GI50 (T47D) was 2.87 µM and the TGI (HCC 2998) was 5.51 µM. It also gave a TGI (HCT-116) of over 100 µM, a TGI (SF-539) of 3.69 µM and a TGI (SNB-19) of 7.33 µM. The TGI (U-251) was 10.1 µM, the TGI (OVCAR-3 [3]) was 14 µM and the CC50 (CCRF-CEM [4]) was over 100 µM. For the same compound, the CC50 (A549) was 7.38 µM, the CC50 (EKVX) was 44.3 µM and the CC50 (SNB-75) was 25.8 µM. For the same compound, the CC50 (M14) was 5.26 µM, the CC50 (OVCAR-3 [5]) was over 100 µM and the CC50 (786-0) was 71.2 µM. For the same compound, the CC50 (UO-31) was 36.7 µM, the IC50 (MCF7) was 3.08 µM and the Activity (CCRF-CEM [6]) was 22.09%. For the same compound, the Activity [7] was “Active”, the Activity (MDA-MB-231 [8]) was 62.7% and the Activity (MDA-MB-231 [9]) was 10.6%.
